Measurements published in patent publication US4071411A, “Antitumor antibiotics aclacinomycins A and B [RD-9187A]” (priority 1974, dated 1978).
≈ marks a conversion by molar mass, not a printed value. Entries after “also recorded” stand apart in the source; their conditions may differ. Read-outs that look alike come from different tables or passages of the source.

Key:
[1] = system: Protein synthesis (L1210 cells); test: cells; type: cell-based, mice; details: Mus musculus, L1210, 1 h; 14C-precursor incorporation, 37° C., 60 min.; read-out: ID50, Protein synthesis
leukemia L1210 = leukemia L1210 in mice (summary in words); type: in vivo
Rat = test: acute toxicity, single injection; type: in vivo; details: rats
[2] = acute toxicity, single injection; type: in vivo, Rat; details: rat, in vivo, single injection
various animal tumors = test: antitumor activity in animal tumors (summary in words); type: in vivo; details: experimental animal tumors
lymphoma 6C3HED = lymphoma 6C3HED in mice (summary in words); type: in vivo
Vaccinia virus = test: microbe, parasite or virus in culture; type: cell-based
L1210 cells = test: cells; type: cell-based, mice; details: 3 days; for IC50: Mus musculus, L1210, 72 h, 37° C., read-out: ID50, growth; for inhibition of cell growth: below 1 mcg./ml. in the medium
[3] = system: Kl. pneumoniae ATCC 10031; test: antimicrobial spectrum, broth dilution method; type: cell-based; details: Klebsiella pneumoniae
Description: (§1) 1. The antimicrobial spectrum of aclacinomycins A and B was determined by the broth dilution method as follows: […]

Cory. bovis 1810 = test: antimicrobial spectrum, broth dilution method; type: cell-based
Description: as §1

B. cereus ATCC 9634 = test: antimicrobial spectrum, broth dilution method; type: cell-based; details: Bacillus cereus
Description: as §1

Staph. aureus FDA 209P = test: antimicrobial spectrum, broth dilution method; type: cell-based; details: Staphylococcus aureus, FDA209P, read-out: Minimum Inhibitory Concentration
Description: as §1

Can tropicalis IAM 4924 = test: antimicrobial spectrum, broth dilution method; type: cell-based; details: read-out: Minimum Inhibitory Concentration
Description: as §1

Staph. aureus Smith = test: antimicrobial spectrum, broth dilution method; type: cell-based; details: Staphylococcus aureus, read-out: Minimum Inhibitory Concentration
Description: as §1

Sar. lutea ATCC 9341 = test: antimicrobial spectrum, broth dilution method; type: cell-based; details: Micrococcus luteus
Description: as §1

[4] = system: Bacillus subtilis ATCC 6633; test: antimicrobial spectrum, broth dilution method; type: cell-based
Description: as §1

St. pyogenes NY 5 = test: antimicrobial spectrum, broth dilution method; type: cell-based; details: Streptococcus pyogenes
Description: as §1

[5] = system: Mycobact. smegmatis ATCC 607; test: antimicrobial spectrum, broth dilution method; type: cell-based; details: read-out: Minimum Inhibitory Concentration
Description: as §1

Ps. aeruginosa A20229 = test: antimicrobial spectrum, broth dilution method; type: cell-based; details: Pseudomonas aeruginosa
Description: as §1

Can. albicans IAM 4905 = test: antimicrobial spectrum, broth dilution method; type: cell-based; details: Candida albicans
Description: as §1

Diplo. pneumoniae Type 3 = test: antimicrobial spectrum, broth dilution method; type: cell-based; details: Streptococcus pneumoniae
Description: as §1

B. megaterium = test: antimicrobial spectrum, broth dilution method; type: cell-based; details: Priestia megaterium, read-out: Minimum Inhibitory Concentration
Description: as §1

Mic. flavus = test: antimicrobial spectrum, broth dilution method; type: cell-based; details: Micrococcus flavus, read-out: Minimum Inhibitory Concentration
Description: as §1

Diplo. pneumoniae Type 1 = test: antimicrobial spectrum, broth dilution method; type: cell-based; details: Streptococcus pneumoniae
Description: as §1

E. coli K12 = test: antimicrobial spectrum, broth dilution method; type: cell-based; details: Escherichia coli
Description: as §1

Strept. faecalis = test: antimicrobial spectrum, broth dilution method; type: cell-based; details: Enterococcus faecalis, read-out: Minimum Inhibitory Concentration
Description: as §1

[6] = system: RNA synthesis (L1210 cells); test: cells; type: cell-based, mice; details: for IC50: Mus musculus, L1210, 1 h, 14C-precursor incorporation, 37° C., 60 min., read-out: ID50, RNA synthesis
[7] = basicity and lipophilicity
[8] = acute toxicity, single injection; type: in vivo, Mouse; details: mouse, in vivo, single injection
Mouse = test: acute toxicity, single injection; type: in vivo; details: mice
[9] = system: DNA synthesis (L1210 cells); test: cells; type: cell-based, mice; details: Mus musculus, L1210, 1 h; 14C-precursor incorporation, 37° C., 60 min.; read-out: ID50, DNA synthesis
leukemia P388 = leukemia P388 in mice (summary in words); type: in vivo
rabbits = test: lethal dose (LD50) on rabbits; type: in vivo
[10] = system: Gram-positive bacteria and yeasts; test: antimicrobial activity (summary in words); type: cell-based
[11] = system: nucleic acid biosynthesis (L1210 cells); type: cell-based, mice; details: below 1 mcg./ml. in the medium, 60 min.
[12] = system: cultured mammalian tumor cells; test: growth of tumor cells in culture (summary in words); type: cell-based
hamsters = test: acute cardiac alterations in the electrocardiograms of hamsters / cardiotoxicity; details: hamster, in vivo
solubility = details: for solubility in low polar solvents: ether, hexane, cyclohexane, petroleum ether as listed; for solubility in organic solvents: methanol, ethanol, chloroform, ethyl acetate, acetone etc.

CCC1(O)CC(OC2CC(N(C)C)C(OC3CC4OC5CC(=O)C(C)OC5OC4C(C)O3)C(C)O2)c2c(cc3c(c2O)C(=O)c2c(O)cccc2C3=O)C1C(=O)OC (stereo not shown) [Aclacinomycin B]
IC50 [1]: 12 µg/mL (≈ 14.8 µM) | inhibition of growth of leukemia L1210 (leukemia L1210): effective in inhibiting the growth | life prolongation, mice inoculated with leukemia L1210 (leukemia L1210): markedly prolong the lives | lethal dose (LD50), in words (Rat): high lethal dose | LD50 ([2]; ip, intraperitoneal): 10 to 15 mg/kg | LD50 ([2]; intravenous): 15 mg/kg | antitumor activity (in words) (various animal tumors): marked inhibitory effects; also recorded: potent antitumor activity | life prolongation, mice inoculated with lymphoma 6C3HED (lymphoma 6C3HED): markedly prolong the lives | inhibition of growth of vaccinia virus (in words) (Vaccinia virus): effective in inhibiting the growth | IC50 (Vaccinia virus; Orthopoxvirus vaccinia, HeLa; read-out: ID50, Vaccinia virus): < 10 µg/mL | IC50 (L1210 cells): 0.24 µg/mL (≈ 0.296 µM) | inhibition of cell growth (L1210 cells): over 50% | MIC ([3]; ATCC10031, read-out: Minimum Inhibitory Concentration): > 100 µg/mL | MIC (Cory. bovis 1810; Corynebacterium bovis, 1810, read-out: Minimum Inhibitory Concentration): < 0.2 µg/mL | MIC (B. cereus ATCC 9634; ATCC9634, read-out: Minimum Inhibitory Concentration): < 0.2 µg/mL | MIC (Staph. aureus FDA 209P): < 0.2 µg/mL | MIC (Can tropicalis IAM 4924): 20 µg/mL (≈ 24.7 µM) | MIC (Staph. aureus Smith): < 0.2 µg/mL | MIC (Sar. lutea ATCC 9341; ATCC9341, read-out: Minimum Inhibitory Concentration): < 0.2 µg/mL | MIC ([4]; ATCC6633, read-out: Minimum Inhibitory Concentration): < 0.2 µg/mL | MIC (St. pyogenes NY 5; NY5, read-out: Minimum Inhibitory Concentration): 1.25 µg/mL (≈ 1.54 µM) | MIC [5]: 5 µg/mL (≈ 6.17 µM) | MIC (Ps. aeruginosa A20229; A20229, read-out: Minimum Inhibitory Concentration): > 100 µg/mL | MIC (Can. albicans IAM 4905; IAM4905, read-out: Minimum Inhibitory Concentration): 10 µg/mL (≈ 12.3 µM) | MIC (Diplo. pneumoniae Type 3; TYPE3, read-out: Minimum Inhibitory Concentration): 0.63 µg/mL (≈ 0.778 µM) | MIC (B. megaterium): < 0.2 µg/mL | MIC (Mic. flavus): < 0.2 µg/mL | MIC (Diplo. pneumoniae Type 1; TYPE1, read-out: Minimum Inhibitory Concentration): 0.63 µg/mL (≈ 0.778 µM) | MIC (E. coli K12; K12, read-out: Minimum Inhibitory Concentration): > 100 µg/mL | MIC (Strept. faecalis): 2.5 µg/mL (≈ 3.09 µM) | inhibition of RNA synthesis (in words) [6]: specific inhibition on RNA synthesis | IC50 [6]: 0.2 µg/mL (≈ 0.247 µM) | basicity [7]: weakly basic | lipophilicity [7]: lipophilic | LD50 ([8]; ip, intraperitoneal): 13.7 mg/kg | LD50 ([8]; intravenous): 16.4 mg/kg | lethal dose (LD50), in words (Mouse): high lethal dose | IC50 [9]: 4 µg/mL (≈ 4.94 µM) | inhibition of growth of leukemia P388 (leukemia P388): effective in inhibiting the growth | life prolongation, mice inoculated with leukemia P388 (leukemia P388): markedly prolong the lives | lethal dose (LD50), in words (rabbits): high lethal dose | antimicrobial activity [10]: effective in inhibiting the growth; also recorded: strong antimicrobial activity | inhibition of nucleic acid biosynthesis [11]: over 50% | inhibition of growth of tumor cells in culture (in words) [12]: remarkable inhibitory effect | cardiotoxicity on hamsters (hamsters): extremely low cardiotoxicity | solubility in acidic water (solubility; acidic water): soluble | solubility in low polar solvents (solubility): insoluble | solubility in organic solvents (solubility): soluble | solubility in water (solubility): slightly soluble

CCC1(O)CC(OC2CC(N(C)C)C(OC3CC(O)C(OC4CCC(=O)C(C)O4)C(C)O3)C(C)O2)c2c(cc3c(c2O)C(=O)c2c(O)cccc2C3=O)C1C(=O)OC (stereo not shown) [Aclacinomycin A]
IC50 [1]: 6.3 µg/mL (≈ 7.76 µM) | inhibition of growth of leukemia L1210 (leukemia L1210): effective in inhibiting the growth | life prolongation, mice inoculated with leukemia L1210 (leukemia L1210): markedly prolong the lives | lethal dose (LD50), in words (Rat): high lethal dose | LD50 ([2]; ip, intraperitoneal): 25 to 50 mg/kg | LD50 ([2]; intravenous): 32.5 mg/kg | antitumor activity (in words) (various animal tumors): marked inhibitory effects; also recorded: potent antitumor activity | inhibition of growth of lymphoma 6C3HED (lymphoma 6C3HED): effective in inhibiting the growth | life prolongation, mice inoculated with lymphoma 6C3HED (lymphoma 6C3HED): markedly prolong the lives | inhibition of growth of vaccinia virus (in words) (Vaccinia virus; HeLa cells): effective in inhibiting the growth | IC50 (Vaccinia virus; Orthopoxvirus vaccinia, HeLa, read-out: ID50, Vaccinia virus): < 10 µg/mL | IC50 (L1210 cells): 0.12 µg/mL (≈ 0.148 µM) | inhibition of cell growth (L1210 cells): over 50% | MIC ([3]; ATCC10031, broth dilution, read-out: Minimum Inhibitory Concentration): > 100 µg/mL | MIC (Cory. bovis 1810; Corynebacterium bovis, 1810, broth dilution, read-out: Minimum Inhibitory Concentration): < 0.2 µg/mL | MIC (B. cereus ATCC 9634; ATCC9634, broth dilution, read-out: Minimum Inhibitory Concentration): < 0.2 µg/mL | MIC (Staph. aureus FDA 209P; broth dilution): < 0.63 µg/mL | MIC (Can tropicalis IAM 4924; broth dilution): 20 µg/mL (≈ 24.6 µM) | MIC (Staph. aureus Smith; broth dilution): < 0.2 µg/mL | MIC (Sar. lutea ATCC 9341; ATCC9341, broth dilution, read-out: Minimum Inhibitory Concentration): < 0.2 µg/mL | MIC ([4]; ATCC6633, broth dilution, read-out: Minimum Inhibitory Concentration): < 0.2 µg/mL | MIC (St. pyogenes NY 5; NY5, broth dilution, read-out: Minimum Inhibitory Concentration): 1.25 µg/mL (≈ 1.54 µM) | MIC ([5]; broth dilution): 2.5 µg/mL (≈ 3.08 µM) | MIC (Ps. aeruginosa A20229; A20229, broth dilution, read-out: Minimum Inhibitory Concentration): > 100 µg/mL | MIC (Can. albicans IAM 4905; IAM4905, broth dilution, read-out: Minimum Inhibitory Concentration): 10 µg/mL (≈ 12.3 µM) | MIC (Diplo. pneumoniae Type 3; TYPE3, broth dilution, read-out: Minimum Inhibitory Concentration): 0.63 µg/mL (≈ 0.776 µM) | MIC (B. megaterium; broth dilution): < 0.63 µg/mL | MIC (Mic. flavus; broth dilution): < 0.2 µg/mL | MIC (Diplo. pneumoniae Type 1; TYPE1, broth dilution, read-out: Minimum Inhibitory Concentration): 0.63 µg/mL (≈ 0.776 µM) | MIC (E. coli K12; K12, broth dilution, read-out: Minimum Inhibitory Concentration): > 100 µg/mL | MIC (Strept. faecalis; broth dilution): 2.5 µg/mL (≈ 3.08 µM) | inhibition of RNA synthesis (in words) [6]: specific inhibition on RNA synthesis | IC50 [6]: 0.1 µg/mL (≈ 0.123 µM) | basicity [7]: weakly basic | LD50 ([8]; ip, intraperitoneal): 22.6 mg/kg | LD50 ([8]; intravenous): 33.7 mg/kg | lethal dose (LD50), in words (Mouse): high lethal dose | IC50 [9]: 1.1 µg/mL (≈ 1.35 µM) | inhibition of growth of leukemia P388 (leukemia P388): effective in inhibiting the growth | life prolongation, mice inoculated with leukemia P388 (leukemia P388): markedly prolong the lives | lethal dose (LD50), in words (rabbits): high lethal dose | antimicrobial activity [10]: effective in preventing the growth; also recorded: strong antimicrobial activity | inhibition of nucleic acid biosynthesis [11]: over 50% | inhibition of growth of tumor cells in culture (in words) [12]: remarkable inhibitory effect | cardiotoxicity on hamsters (hamsters): extremely low cardiotoxicity | solubility in low polar solvents (solubility): insoluble | solubility in organic solvents (solubility): soluble | solubility in water (solubility): slightly soluble
